The test system of series [1] is HeLa (human cervical epithelioid carcinoma). Briefly: MTT assay, HeLa. Type of series: cell-based. The settings on record: for IC50: MTT assay, HeLa, read-out: IC50 (±SD), HeLa; for Selectivity index (SI), HeLa: IC50 HDF / IC50 HeLa. The protocol:
(§1) All the cell lines and mediums were obtained from the American Type Culture Collection (ATCC) supplied by LGC-Standards (Lomianki, Poland). Human cancer cell lines were cultured as follows: HeLa (human cervix carcinoma) and KB (human oral squamous carcinoma) lines were cultured in DMEM (Dulbecco’s Modified Eagle’s Medium); MCF-7 (human breast carcinoma) and A-549 (human lung carcinoma) were cultured in RPMI 1640 medium; PC-3 (human prostate carcinoma) was cultured in F-12K medium; SKOV-3 (human ovarian cystadenocarcinoma) was cultured in McCoy’s modified medium; HDF (human normal dermal fibroblasts) was cultured in Fibroblast Basal Medium. Each medium was supplemented with 10% fetal bovine serum, 1% L- glutamine and 1% penicillin/streptomycin solution. The cell lines were kept in an incubator at 37 °C.
(§2) All the tested cell lines (HeLa, KB, MCF-7, A-549, PC-3, SKOV-3 and HDF) were subjected to MTT assay. In short, this assay is based on the reaction between mitochondria enzymes (dehydrogenases) of tested cell lines and 3-(4,5-dimethylthiazol-2-yl)-2,5-diphenyltetrazolium bromide (MTT). The final product of this reaction gives violet formazan crystals. The number of live cells is proportional to the amount of formazan and is represented by the violet dye reagent. The details of the experiments are given in [19].

The subject of series [2] is KB (human oral squamous carcinoma). Nature of the series: MTT assay, KB. It counts as cell-based. As to conditions: for IC50: MTT assay, KB; for Selectivity index (SI), KB: IC50 HDF / IC50 KB. The protocol:
as §1, §2

The test system of series [3] is MCF-7 (human breast carcinoma). Briefly: MTT assay, MCF-7. It counts as cell-based. As to conditions: for IC50: MTT assay, MCF-7, read-out: IC50 (±SD), MCF-7; for Selectivity index (SI), MCF-7: IC50 HDF / IC50 MCF-7. The protocol: as §1, §2
The test system of series [4] is A-549 (human lung carcinoma). Briefly: MTT assay, A-549. It counts as cell-based. The settings on record: for IC50: MTT assay, A-549, read-out: IC50 (±SD), A-549; for Selectivity index (SI), A-549: IC50 HDF / IC50 A-549. The procedure:
as §1, §2

Series [5] relates to PC-3 (human prostate carcinoma). Briefly: MTT assay, PC-3. The settings on record: for IC50: MTT assay, PC-3, read-out: IC50 (±SD), PC-3; for Selectivity index (SI), PC-3: IC50 HDF / IC50 PC-3. Type of series: cell-based. The procedure: as §1, §2
In series [6] the test system is SKOV-3 (human ovarian carcinoma). Briefly: MTT assay, SKOV-3. It counts as cell-based. The settings on record: for IC50: MTT assay, SKOV-3, read-out: IC50 (±SD), SKOV-3; for Selectivity index (SI), SKOV-3: IC50 HDF / IC50 SKOV-3. The procedure:
as §1, §2

The test system of series [7] is HDF (human dermal fibroblasts). Briefly: MTT assay, normal HDF. It counts as cell-based. As to conditions: read-out: IC50 (±SD), HDF. The protocol:
as §1, §2

Another series in a line: CUPRAC antioxidant assay. As to conditions: calculated from Trolox standard curve. The protocol:
(§3) The results are presented as % inhibition of the copper(II) ions and Trolox equivalent calculated from the standard curve (Figure 9) and as % inhibition of the DPPH radical and Trolox equivalent, calculated from the standard curve (Figure 10).
(§4) The CUPRAC reagent (7.5 mM ethanolic 96% neocuproine solution, 10 mM CuCl2 × H2O solution and an ammonium acetate buffer of pH 7.0) and DPPH reagent (2,2-diphenyl-1-picrylhydrazyl 0.2 mM solution) were applied.
(§5) The CUPRAC method measures the reducing power of a sample by quantifying its ability to convert the Cu-neocuproine reagent complex to the Cu(I) form. In contrast, the DPPH assay relies on the ability of an antioxidant to donate a hydrogen atom or an electron to the stable DPPH radical, resulting in its reduction and subsequent color change. The results are presented as % inhibition of the copper(II) ions and Trolox equivalent calculated from the standard curve (Figure 9) and as % inhibition of the DPPH radical and Trolox equivalent, calculated from the standard curve (Figure 10). The spectroscopic detection in CUPRAC and DPPH assays was conducted with Synergy H1 Multi-Mode Microplate Reader (BioTek Instruments, Inc., Winooski, VT, USA). The details of the experiments are given in [102].

A short description of another series: DPPH antioxidant assay. As to conditions: calculated from Trolox standard curve. The protocol:
as §3, §4, §5

Series [8] has as its system HeLa, KB, MCF-7, A-549, PC-3 and SKOV-3. Briefly: MTT assay, summary over the cancer cell lines. Type of series: cell-based, human. The protocol:
as §1, §2

The next series relates to SKOV-3. Nature of the series: Apoptosis assay (Cell Death Detection ELISA Plus), SKOV-3. The settings on record: SKOV-3, 4 h incubation, enrichment of mono- and oligonucleosomes vs negative control. It counts as cell-based, human. The protocol: (§6) The induction of apoptosis by tested compounds was determined with Cell Death Detection ELISA Plus from Roche Diagnostics GmbH (Mannheim, Germany).
(§7) Cell Death Detection ELISA Plus is an enzyme immunoassay for determining cytoplasmic histone-associated DNA fragments (mono- and […]) after induced cell death. Cells (10^4) were pipetted into wells of 96-well plates, and test compounds were added at final concentrations of 0.1, 1.0 and 10.0 µg × mL^−1. Cells incubated in the absence of test compounds served as negative controls. After 4 h of incubation, cells were harvested by centrifugation of the plates for 10 min at 200× g. Supernatants were removed carefully, and cell pellets were resuspended in 200 µL of cell lysis buffer and incubated for 30 min at room temperature. After centrifugation of the plates (10 min at 200× g), 20 µL of cell lysates was transferred in duplicate into wells of provided streptavidin-coated microplates. Then, 80 µL of the immunoreagent containing a mixture of anti-histone-biotin monoclonal antibody and anti-DNA-peroxidase monoclonal antibody was added to each well. The microplates were covered with a provided adhesive foil and incubated for 2 h at room temperature. Thereafter, the solution in the wells was removed by tapping the microplate. The wells were rinsed three times with incubation buffer, and 100 µL of substrate (2,2′-azino-bis [3-ethylbenzothiazoline-6-sulphonic acid], ABTS) was added to each well. After 10–20 min, 100 µL of ABTS stop solution was pipetted to each well, and the absorbance was read at 405 nm (test wavelength) and 490 nm (reference wavelength). The apoptotic index was calculated based on the enrichment of mono- and oligonucleosomes according to the following equation:apoptotic index = [{A405(sample) − A490(sample)}/{A405(negative control) − A490(negative control)}]

The next series deals with PC-3. Briefly: Apoptosis assay (Cell Death Detection ELISA Plus), PC-3. Type of series: cell-based, human. As to conditions: PC-3, 4 h incubation, enrichment of mono- and oligonucleosomes vs negative control. The procedure: as §6, §7

Several values for one entry are separate records, joined by “and”; a condition that tells them apart may be missing. Equal entries are not always repeated. Where two headings read alike, the source gives them in different places.

With `CC(=O)OCC12CCC(C)(C)CC1C1=CCC3C4(C)CCC(OC(C)=O)C(C)(C)C4CCC3(C)C1(C)CC2` (stereo not shown) [2b, 3,28-di-O-Acetylerythrodiol], the IC50 in [1] (Homo sapiens) came out at 70.3 µM; in series [2] (Homo sapiens), 50 µM; in series [3] (Homo sapiens, MCF7), 61.6 µM; in series [4] (Homo sapiens, A549), 51.6 µM; in series [5] (Homo sapiens), 25.1 µM; in series [6] (Homo sapiens, SK-OV-3), 25.5 µM. Further, in [7] (Homo sapiens, Fibroblast), the IC50 worked out at 53.1 µM. Besides, in [1], the “Selectivity index (SI), HeLa” value is recorded as 0.75. Also, the “Selectivity index (SI), KB” value in series [2] worked out at 1.06. Moreover, the “Selectivity index (SI), MCF-7” value in [3] turned out to be 0.86. For the same molecule, the “Selectivity index (SI), A-549” value in series [4] was found to be 1.03. In addition, in [5], the “Selectivity index (SI), PC-3” value was 2.11. Besides, the “Selectivity index (SI), SKOV-3” value in [6] is on record as 2.08. Besides, in “CUPRAC antioxidant assay”, the “Trolox Equivalent, CUPRAC Assay” value was 0.2402 mg/mL and 0.2402 ± 0.00995 mg/mL. In addition, the “Trolox Equivalent, DPPH Assay” value in the series “DPPH antioxidant assay” was 0.00313 ± 0.00013 mg/mL.

Turning to `CC1(C)CC[C@]23CC[C@]4(C)[C@H](CC[C@@H]5[C@@]6(C)CC[C@H](O)C(C)(C)[C@@H]6CC[C@]54C)[C@H]2[C@H]1OC3` [3a, allobetulin], the IC50 was determined as 49.4 µM in series [1] (Homo sapiens); 45.3 µM in [2] (Homo sapiens); 71.1 µM in series [3] (Homo sapiens, MCF7); 51.7 µM in series [4] (Homo sapiens, A549); 20.2 µM in series [5] (Homo sapiens); 20.9 µM in series [6] (Homo sapiens, SK-OV-3). Besides, the IC50 in series [7] (Homo sapiens, Fibroblast) was 48.2 µM; in series [8] (Homo sapiens, MTT assay, range over tested cancer cell lines), 20 to 70 µM. Moreover, in series [1], the “Selectivity index (SI), HeLa” value amounted to 0.97. In addition, the “Selectivity index (SI), KB” value in [2] came to 1.06. In addition, the “Selectivity index (SI), MCF-7” value in series [3] is reported as 0.68. In addition, the “Selectivity index (SI), A-549” value in [4] amounted to 0.93. For the same molecule, the “Selectivity index (SI), PC-3” value in series [5] was found to be 2.39. Moreover, the “Selectivity index (SI), SKOV-3” value in series [6] was found to be 2.30. In addition, the “Apoptotic index (AI), SKOV-3” value in the series with SKOV-3 was 5.78 (0.01). Besides, the “Apoptotic index (AI), PC-3” value with PC-3 is reported as 5.27 (0.01). In addition, in the series “CUPRAC antioxidant assay”, the “Trolox Equivalent, CUPRAC Assay” value is 0.08248 mg/mL and 0.08248 ± 0.005 mg/mL. Besides, the “Trolox Equivalent, DPPH Assay” value in “DPPH antioxidant assay” is 0.01677 ± 0.000694 mg/mL.

On to `CC(=O)OC1CCC2(C)C(CCC3(C)C2CCC2C4C5OCC4(CCC5(C)C)CCC23C)C1(C)C` (stereo not shown) [3b, 3-O-Acetylallobetulin], for which the IC50 in [1] is greater than 100 µM; in series [2], greater than 100 µM; in series [3], greater than 100 µM; in series [4], greater than 100 µM; in series [5] it was 52.2 µM; in [6], 53.1 µM. Further, the IC50 in series [7] was determined as 62 µM. Also, the “Trolox Equivalent, CUPRAC Assay” value in the series “CUPRAC antioxidant assay” was 0.03212 mg/mL and 0.03212 ± 0.00166 mg/mL. In addition, the “Trolox Equivalent, DPPH Assay” value in “DPPH antioxidant assay” was 0.00182 mg/mL and 0.00182 ± 0.000755 mg/mL.

With `C=C(C)C1CCC2(C(=O)O)CCC3(C)C(CCC4C5(C)CCC(OC(C)=O)C(C)(C)C5CCC43C)C12` (stereo not shown) [4b, 3-O-Acetylbetulinic acid], the IC50 in series [1] (Homo sapiens) stood at 1.62 µM; in series [2] (Homo sapiens), 1.5 µM; in series [3] (Homo sapiens, MCF7) it was 1.5 µM; in series [4] (Homo sapiens, A549), 1.23 µM; in series [5] (Homo sapiens) it was 0.93 µM; in [6] (Homo sapiens, SK-OV-3), 1.03 µM. Besides, in series [7] (Homo sapiens, Fibroblast), the IC50 was determined as 2.88 µM. In addition, in series [1], the “Selectivity index (SI), HeLa” value is recorded as 1.77. For the same molecule, the “Selectivity index (SI), KB” value in [2] amounted to 1.92. Moreover, the “Selectivity index (SI), MCF-7” value in series [3] was 1.92. For the same molecule, the “Selectivity index (SI), A-549” value in series [4] turned out to be 2.34. For the same molecule, the “cytotoxic activity class” value in series [8] (classification by IC50 (good ≤ 10 μM, moderate 10–30 μM, ref 83)) is “very high cytotoxic activity”. In addition, the “Apoptotic index (AI), SKOV-3” value in the series on SKOV-3 is recorded as 7.81 (0.02). For the same molecule, the “Apoptotic index (AI), PC-3” value with PC-3 is given as 7.09 (0.01). In “CUPRAC antioxidant assay”, the “Trolox Equivalent, CUPRAC Assay” value was 0.1999 mg/mL and 0.1999 ± 0.0015 mg/mL. Besides, the “Trolox Equivalent, DPPH Assay” value in the series “DPPH antioxidant assay” is 0.00376 ± 0.000156 mg/mL.

`C=C(C)[C@@H]1CC[C@]2(C)CC[C@]3(C)[C@H](CC[C@@H]4[C@@]5(C)CC[C@H](OC(C)=O)C(C)(C)[C@@H]5CC[C@]43C)[C@@H]12` [6b, 3-O-Acetylolupeol]: the IC50 in series [1] stood at 72.6 µM; in series [2] it was 72.5 µM; in series [3] it was 50 µM; in [4], 56.2 µM; in [5], 22.2 µM; in series [6] it was 21.1 µM. In addition, the IC50 in series [7] came to 35 µM. Besides, the “Trolox Equivalent, CUPRAC Assay” value in “CUPRAC antioxidant assay” is 0.1349 ± 0.00514 mg/mL. The “Trolox Equivalent, DPPH Assay” value in “DPPH antioxidant assay” is recorded as 0.00348 ± 0.000144 mg/mL.

The values are drawn from publication PMC12196235, “Enhancing the Pharmacological Properties of Triterpenes Through Acetylation: An Anticancer and Antioxidant Perspective” (Molecules, 2025).
